Entries after “also recorded” stand apart in the source; their conditions may differ.
Assays:
[1] = Evaluation of bile stones dissolution capacity; conditions: 0.5% UDCA, 37° C. with constant movement, 120 hours, bile stone weights measured every 24 hours; compared with water, EDTA, MTBE, Paclitaxel, Gemcitabine
Description: Pigment bile stones were stored in water, 1% ethylenediaminetetraacetic acid (EDTA), 0.5% ursodeoxycholic acid (UDCA), 99% methyl tert-butyl ether (MTBE), 20 μg/ml of Paclitaxel, and 200 uM of Gemcitabine, observed for 120 hours at 37° C. with constant movement, and the weights of the bile stones were measured every 24 hours to evaluate bile stone dissolution capacity (FIG. 1).

[2] = tested on: human chemically derived hepatic progenitors (hCdHs); assay: Differentiation of hCdHs into cholangiocytes (hCdH-Chols) on ABD; assay type: cell-based
From the text: In manufacturing a 3D artificial bile duct disclosed in the present specification, cholangiocytes (hCdH-Chols) derived from human chemically derived hepatic progenitors (hCdHs) were used. Because primary cholangiocytes from humans and other mammals are difficult to isolate and propagate in vitro, human chemically derived hepatic progenitors (hCdHs) were utilized for biliary epithelium modeling. To generate hCdHs, human adult hepatocytes isolated from healthy donor livers were directly reprogrammed into bi-potent progenitors through combinatorial treatment with two small molecules, A83-01 and CHIR99021, in the presence of a hepatocyte growth factor (HGF) as described in a recent publication (Y. Kim, K. Kang, S. B. Lee, D. Seo, S. Yoon, […]. Jang, Y. K. Jung, K. G. Lee, V. M. Factor, J. Jeong, D. Choi, J Hepatol 2019, 70, 97.). A cholangiocyte differentiation protocol was applied when hCdHs reached a passage 3. The hCdHs cultured for 14 days in a cholangiocyte differentiation medium comprising Na-taurocholate (100 uM) and CHIR99021 ([…]) in the presence of a HGF for hCdH-Chols differentiation. The ABDs comprising the inner fibrous layer electrospun using 21 G and 27 G needles by the method of Example 2 were treated with UDCA, and after 50 days, whether differentiation into cholangiocytes using human chemically derived hepatic progenitors (hCdHs) is promoted was evaluated. As a control group, a 3D ABD untreated with UDCA was compared.

C[C@H](CCC(=O)O)[C@H]1CC[C@H]2[C@@H]3[C@@H](O)C[C@@H]4C[C@H](O)CC[C@]4(C)[C@H]3CC[C@]12C [UDCA, ursodeoxycholic acid]
bile stone dissolution capacity [1]: dissolved the most; also recorded: significantly increased compared to other solvents
differentiation of hepatic progenitors (hCdHs) into cholangiocytes (hCdH-Chols) ([2]; ABD treated with UDCA, after 50 days, vs 3D ABD untreated with UDCA): promoted differentiation
attachment of cells to the bile ducts by nanofibers of the inner fibrous layer ([2]; UDCA present in inner fibrous layer of ABD vs 3D ABD untreated with UDCA): better attached cells to the bile ducts
expression of cholangiocyte markers in hCdH-Chols ([2]; after a period of differentiation): high levels
